In US6599747B1, “Soil test” (University of Lancaster, priority 1998, dated 2003):

Assay: Extraction of soil-associated 14C-9-phenanthrene with aqueous HPCD solution
Format: physicochemical
Conditions: for Concentration Extracted into HPCD Solution: 20 h
Procedure: A sample was “spiked” with 10 mg kg^−1 14C-9phenanthrene. Samples of the soil (1.25 g) were then extracted for 20 hours (sufficient time for extraction of the rapidly i.e. non-kinetically restrained fraction of compounds to be exchanged—see Example 2) with increasing concentration solutions (25 ml) of HPCD in water. The amount of activity exchanged into the HPCD solution was measured as was the total activity present. The results are shown in Table 1 in which the activity units are dpm g^−1 soil (where dpm stands for disintegrations per minute).
The above extraction was repeated but using an HPCD solution having a concentration of 50 mM. However the extraction was terminated after 3, 6, 12, 18, 24 and 40 hours. The results are shown in Table 2 in which the activity units are dpm […] soil (where dpm stands for disintegration per minute).
Soil was “spiked” to concentrations of 25 and 50 mg kg^−1. The above extraction was repeated but using a HPCD solution having a concentration of 50 mM. Soil samples were aged for 1, 42 and 84 d prior to extraction. An extraction time of 20 h was used as before (Example 1 and 2 ). The biodegradability of the soil associated ^14C-9-phenanthrene was assessed using respirometry. Respirometers consisted of Erlyn,eyer flasks (250 mL), to which soil (10 g) and water (30 mL) were added. The flasks were innoculated (10^7-10^8 g^−1 soil) with a catabolocally active microbial culture. The sealed flasks were shaken and the carbon dioxide evolved from the biodegration of the phenanthrene trapped in potassium hydroxide (1 M, 1 mL.) Mineralisation was measured until it platcauted (240 h).

[1] = HPCD 0 mM, 20 h extraction, soil spiked 10 mg kg^−1
[2] = HPCD 5 mM, 20 h extraction, soil spiked 10 mg kg^−1
[3] = HPCD 10 mM, 20 h extraction, soil spiked 10 mg kg^−1
[4] = HPCD 20 mM, 20 h extraction, soil spiked 10 mg kg^−1
[5] = HPCD 40 mM, 20 h extraction, soil spiked 10 mg kg^−1
[6] = HPCD 50 mM, 20 h extraction, soil spiked 10 mg kg^−1
[7] = HPCD 60 mM, 20 h extraction, soil spiked 10 mg kg^−1

With `c1ccc2c(c1)ccc1ccccc12` [phenanthrene] as the molecule, how does the “HPCD solution concentration giving maximum extraction” value (20 h extraction, soil spiked 10 mg kg^−1) read?
The value was 40 mM.

What about the “% Exchangeable with HPCD solution” value [1] of the same molecule?
Its value is 2.79%.

And the “Activity Exchanged into HPCD Solution” value [1]?
Its value is 86.96 dpm g^−1 soil.

What about the “% Exchangeable with HPCD solution” value [2] of the same molecule?
Its value is 38.06%.

What about the “Activity Exchanged into HPCD Solution” value [2] of the same molecule?
Its value is 1186.25 dpm g^−1 soil.

What about the “% Exchangeable with HPCD solution” value [3] of the same molecule?
The value was 45.88%.

What about the “Activity Exchanged into HPCD Solution” value [3] of the same molecule?
The value was 1429.98 dpm g^−1 soil.

And the “% Exchangeable with HPCD solution” value [4]?
The value was 57.51%.

What about the “Activity Exchanged into HPCD Solution” value [4] of the same molecule?
Its value is 1792.47 dpm g^−1 soil.

What about the “% Exchangeable with HPCD solution” value [5] of the same molecule?
Its value is 71.63%.

What about the “Activity Exchanged into HPCD Solution” value [5] of the same molecule?
The value was 2232.56 dpm g^−1 soil.

What about the “extraction time after which the rapidly (non-kinetically restrained) fraction was extracted” value (HPCD 50 mM) of the same molecule?
Its value is 6 h.

What about the “% Exchangeable with HPCD solution” value [6] of the same molecule?
The value was 64.33%.

What about the “Activity Exchanged into HPCD Solution” value [6] of the same molecule?
Its value is 2005.03 dpm g^−1 soil.

What about the “% Exchangeable with HPCD solution” value (HPCD 50 mM, extraction time 0 h) of the same molecule?
The value was 0.0%.

What about the “% Exchangeable with HPCD solution” value (HPCD 50 mM, extraction time 3 h) of the same molecule?
Its value is 64.2%.

What about the “% Exchangeable with HPCD solution” value (HPCD 50 mM, extraction time 6 h) of the same molecule?
The value was 73.4%.

What about the “% Exchangeable with HPCD solution” value (HPCD 50 mM, extraction time 12 h) of the same molecule?
The value was 72.8%.

What about the “% Exchangeable with HPCD solution” value (HPCD 50 mM, extraction time 18 h) of the same molecule?
The value was 74.5%.

What about the “% Exchangeable with HPCD solution” value (HPCD 50 mM, extraction time 24 h) of the same molecule?
Its value is 76.8%.

What about the “% Exchangeable with HPCD solution” value (HPCD 50 mM, extraction time 40 h) of the same molecule?
The value was 75.6%.

What about the “% Exchangeable with HPCD solution” value [7] of the same molecule?
The value was 69.74%.

What about the “Activity Exchanged into HPCD Solution” value [7] of the same molecule?
Its value is 2173.65 dpm g^−1 soil.

And the “Concentration Extracted into HPCD Solution” value (soil spiked 25 mg/kg^−1, aged 1 d, HPCD 50 mM)?
Its value is 19.5 mg/kg^−1.

What about the “Concentration Extracted into HPCD Solution” value (soil spiked 25 mg/kg^−1, aged 42 d, HPCD 50 mM) of the same molecule?
The value was 17.6 mg/kg^−1.

And the “Concentration Extracted into HPCD Solution” value (soil spiked 25 mg/kg^−1, aged 84 d, HPCD 50 mM)?
The value was 15.5 mg/kg^−1.

What about the “Concentration Extracted into HPCD Solution” value (soil spiked 50 mg/kg^−1, aged 1 d, HPCD 50 mM) of the same molecule?
The value was 29.9 mg/kg^−1.

What about the “Concentration Extracted into HPCD Solution” value (soil spiked 50 mg/kg^−1, aged 42 d, HPCD 50 mM) of the same molecule?
The value was 15.4 mg/kg^−1.

What about the “Concentration Extracted into HPCD Solution” value (soil spiked 50 mg/kg^−1, aged 84 d, HPCD 50 mM) of the same molecule?
Its value is 1.0 mg/kg^−1.
